Experimental data: ChEMBL document CHEMBL4610106, “Identification of the Clinical Development Candidate MRTX849, a Covalent KRASG12C Inhibitor for the Treatment of Cancer” (J Med Chem, 2020)
Values after ≈ are worked out from the molar mass of the structure shown.

Key:
[1] = Half life in CD1 mouse at 3 mg/kg, iv; type: ADME, organism-based; conditions: in vivo
[2] = Drug metabolism in mouse hepatocytes assessed as peak area for metabolite formed due to biotransformation (sulfate) at 10 uM incubated for 2 hrs by LC-MS analysis; type: ADME, cell-based, Hepatocyte
[3] = Drug metabolism in mouse hepatocytes assessed as peak area for metabolite formed due to biotransformation ( GSH) at 10 uM incubated for 2 hrs by LC-MS analysis; type: ADME, cell-based, Hepatocyte
[4] = Cmax in CD1 mouse at 30 mg/kg, po; type: ADME, organism-based; parameters: dose 30 mg/kg, route oral; conditions: in vivo
[5] = AUC (infinity) in rat at 30 mg/kg, po; type: ADME, organism-based; parameters: dose 30 mg/kg, time infinity, route oral; conditions: in vivo
[6] = Solubility in FaSSIF at pH 6.5; type: physicochemical
[7] = in vivo; conditions: rat, po, 30 mg/kg
[8] = in vivo; conditions: beagle, dog, po, 30 mg/kg
[9] = Half life in rat at 3 mg/kg, iv; type: ADME, organism-based; conditions: in vivo
[10] = Cmax in beagle dog at 30 mg/kg, po; type: ADME, organism-based, Canis lupus familiaris; parameters: dose 30 mg/kg, route oral; conditions: in vivo
[11] = Protein binding in human plasma; type: ADME, cell-free; conditions: read-out: PPB (converted)
[12] = AUC (infinity) in beagle dog at 30 mg/kg, po; type: ADME, organism-based, Canis lupus familiaris; parameters: dose 30 mg/kg, route oral, time infinity; conditions: in vivo
[13] = Half life in beagle dog at 3 mg/kg, iv; type: ADME, organism-based, Canis lupus familiaris; conditions: in vivo
[14] = Drug metabolism in mouse hepatocytes assessed as peak area for metabolite formed due to biotransformation (dealkylation; GSH) at 10 uM incubated for 2 hrs by LC-MS analysis; type: ADME, cell-based, Hepatocyte
[15] = Half life in mouse whole blood at 5 uM by LC-MS/MS analysis; type: ADME, tissue-based
[16] = Volume of distribution at steady state in rat at 3 mg/kg, iv; type: ADME, organism-based; conditions: in vivo
[17] = Protein binding in mouse plasma; type: ADME, cell-free; conditions: read-out: PPB (converted)
[18] = Apparent permeability in pig LLC-PK1 cells; type: ADME, cell-based, Sus scrofa; conditions: read-out: permeability
[19] = Half life in human whole blood at 5 uM by LC-MS/MS analysis; type: ADME, tissue-based
[20] = Half life in dog whole blood at 5 uM by LC-MS/MS analysis; type: ADME, tissue-based, Canis lupus familiaris
[21] = Tmax in rat at 30 mg/kg, po; type: ADME, organism-based; conditions: in vivo
[22] = Volume of distribution at steady state in beagle dog at 3 mg/kg, iv; type: ADME, organism-based, Canis lupus familiaris; conditions: in vivo, read-out: Vdss
[23] = Toxicity in athymic nude-Foxn1nu mouse xenografted with human MIAPaCa2 cells assessed as induction of body weight loss at 10 to 100 mg/kg, po dosed daily via gavage for 16 days; type: organism-based, MIA PaCa-2; conditions: in vivo, 384 h
[24] = AUC (infinity) in CD1 mouse at 30 mg/kg, po; type: ADME, organism-based; parameters: dose 30 mg/kg, time infinity, route oral; conditions: in vivo
[25] = Drug metabolism in mouse hepatocytes assessed as peak area for metabolite formed due to biotransformation (dealkylation; glucuronide) at 10 uM incubated for 2 hrs by LC-MS analysis; type: ADME, cell-based, Hepatocyte
[26] = Tmax in beagle dog at 30 mg/kg, po; type: ADME, organism-based, Canis lupus familiaris; conditions: in vivo
[27] = Drug metabolism in mouse hepatocytes assessed as peak area for metabolite formed due to biotransformation (dealkylation; glucuronide; GSH) at 10 uM incubated for 2 hrs by LC-MS analysis; type: ADME, cell-based, Hepatocyte
[28] = tested on: MIA PaCa-2; test: Antitumor activity against human MIAPaCa2 cells xenografted in athymic nude-Foxn1nu mouse assessed as maximally efficacious dose for induction of tumor regression at 10 to 100 mg/kg, po dosed daily via gavage for 16 days; type: functional
[29] = Clearance in CD1 mouse at 3 mg/kg, iv; type: ADME, organism-based; conditions: in vivo
[30] = Tmax in CD1 mouse at 30 mg/kg, po; type: ADME, organism-based; conditions: in vivo
[31] = Cmax in rat at 30 mg/kg, po; type: ADME, organism-based; parameters: dose 30 mg/kg, route oral; conditions: in vivo
[32] = Drug metabolism in mouse hepatocytes assessed as peak area for metabolite formed due to biotransformation (glucuronide; GSH) at 10 uM incubated for 2 hrs by LC-MS analysis; type: ADME, cell-based, Hepatocyte
[33] = Clearance in beagle dog at 3 mg/kg, iv; type: ADME, organism-based, Canis lupus familiaris; conditions: in vivo
[34] = Volume of distribution at steady state in CD1 mouse at 3 mg/kg, iv; type: ADME, organism-based; conditions: in vivo, read-out: Vdss
[35] = Drug metabolism in mouse hepatocytes assessed as peak area for metabolite formed due to biotransformation (glucuronide) at 10 uM incubated for 2 hrs by LC-MS analysis; type: ADME, cell-based, Hepatocyte

For `C=C(F)C(=O)N1CCN(c2nc(OC[C@@H]3CCCN3C)nc3c2CCN(c2cccc4cccc(Cl)c24)C3)C[C@@H]1CC#N` [ADAGRASIB], the half-life [1] was 1.51 h, the Drug metabolism [2] was “Metabolite_Notdetected” and the Drug metabolism [3] was “Metabolite_Notdetected”. It also gave a Cmax [4] of 2410 ng/mL, an AUC(0-inf) [5] of 2670 ng·h/mL and a solubility [6] of 568 µg/mL (≈ 940 µM). For the same molecule, the bioavailability [7] was 29.7%, the bioavailability [8] was 25.9% and the t1/2 [9] was 2.57 h. The Cmax [10] was 252 ng/mL, the fraction unbound [11] was 0.017 and the AUC(0-inf) [12] was 4470 ng·h/mL. The half-life [13] was 7.56 h, the Drug metabolism [14] was “Metabolite_Notdetected” and the half-life at 5 µM [15] was over 50 h. It also gave a Vdss [16] of 20.7 L/kg, a fraction unbound [17] of 0.01 and a Papp [18] of 4.7 ×10⁻⁶ cm/s. For the same molecule, the half-life at 5 µM [19] was over 50 h, the half-life at 5 µM [20] was over 50 h and the Tmax [21] was 2.67 h. The Vd [22] was 17.4 L/kg, the Activity [23] was “Non-Toxic” and the AUC(0-inf) [24] was 15900 ng·h/mL. The Drug metabolism [25] was “Metabolite_Notdetected”, the Tmax [26] was 4 h and the Drug metabolism [27] was “Metabolite_Notdetected”. For the same molecule, the Activity [28] was 30 to 100 mg/kg, the clearance [29] was 19.9 mL/min/kg and the Tmax [30] was 1 h. For the same molecule, the Cmax [31] was 209 ng/mL, the Drug metabolism [32] was “Metabolite_Notdetected” and the clearance [33] was 29.6 mL/min/kg. The Vd [34] was 2.02 L/kg and the Drug metabolism [35] was “Metabolite_Notdetected”.
